Assay results reported in ChEMBL document CHEMBL1201862, “PubChem BioAssay data set” (2004).
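Following 48 hours of exposure in 96-well plates, responses at five concentrations were used to interpolate endpoints linearly. GI50 = concentration required for 50% inhibition of growth.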 Activity calls are given as the source filed them. Cut-off read from the data, not from the text of the source: active = GI50 up to about 1.1 µM and inactive = higher.

Key:
Assay in all cases: NCI-60 cell line screen, 48 h
NCI-H226 = tested on: NCI-H226
EKVX = tested on: EKVX
CAKI-1 = tested on: CAKI-1
PC-3 = tested on: PC-3
COLO 205 = tested on: COLO 205
NCI-H23 = tested on: NCI-H23
IGROV-1 = tested on: IGROV-1
BT-549 = tested on: BT-549
Hs-578T = tested on: Hs-578T
786-0 = tested on: 786-0
A498 = tested on: A498
LOX IMVI = tested on: LOX IMVI
MCF7 = tested on: MCF7
SK-MEL-2 = tested on: SK-MEL-2
MDA-N = tested on: MDA-N
M14 = tested on: M14
DU-145 = tested on: DU-145
U-251 = tested on: U-251
K562 = tested on: K562
SK-MEL-5 = tested on: SK-MEL-5
SF-539 = tested on: SF-539
RXF 393 = tested on: RXF 393
HCC 2998 = tested on: HCC 2998
OVCAR-4 = tested on: OVCAR-4
UO-31 = tested on: UO-31
MDA-MB-231 = tested on: MDA-MB-231
HCT-116 = tested on: HCT-116
SK-MEL-28 = tested on: SK-MEL-28
HL-60 = tested on: HL-60
UACC-257 = tested on: UACC-257
SR = tested on: SR
SK-OV-3 = tested on: SK-OV-3
T47D = tested on: T47D
HOP-92 = tested on: HOP-92
OVCAR-5 = tested on: OVCAR-5
HCT-15 = tested on: HCT-15
SF-268 = tested on: SF-268
A549 = tested on: A549
SN12C = tested on: SN12C
MDA-MB-435 = tested on: MDA-MB-435
MOLT-4 = tested on: MOLT-4
ACHN = tested on: ACHN
OVCAR-3 = tested on: OVCAR-3
CCRF-CEM = tested on: CCRF-CEM
SNB-19 = tested on: SNB-19
SF-295 = tested on: SF-295
NCI-H522 = tested on: NCI-H522
OVCAR-8 = tested on: OVCAR-8
NCI-H460 = tested on: NCI-H460
RPMI-8226 = tested on: RPMI-8226
NCI/ADR-RES = tested on: NCI/ADR-RES
Malme-3M = tested on: Malme-3M
SW-620 = tested on: SW-620
UACC-62 = tested on: UACC-62
HOP-62 = tested on: HOP-62
SNB-75 = tested on: SNB-75

Measured: GI50

CCCC1(NC(=O)C(F)(F)F)CC(OC)OC2COC(c3ccccc3)OC21 (stereo unspecified)
55.7 µM: HCT-15
inactive: NCI-H226 > 100 µM | EKVX 36.3 µM | CAKI-1 6.31 µM | PC-3 32 µM | COLO 205 21.1 µM | NCI-H23 34.5 µM | IGROV-1 > 100 µM | BT-549 58.6 µM | Hs-578T > 100 µM | 786-0 76.2 µM | A498 > 100 µM | LOX IMVI 64.9 µM | MCF7 30 µM | SK-MEL-2 26.8 µM | MDA-N 59.4 µM | M14 26.8 µM | DU-145 79.3 µM | U-251 46.7 µM | K562 35.3 µM | SK-MEL-5 16.9 µM | SF-539 > 100 µM | RXF 393 94.6 µM | HCC 2998 52.2 µM | OVCAR-4 6.25 µM | UO-31 35 µM | MDA-MB-231 95.1 µM | HCT-116 42.1 µM | SK-MEL-28 > 100 µM | HL-60 27.1 µM | UACC-257 63.1 µM | SR 24.8 µM | SK-OV-3 70 µM | T47D 59.4 µM | HOP-92 9.23 µM | OVCAR-5 > 100 µM | SF-268 > 100 µM | A549 28.3 µM | SN12C > 100 µM | MDA-MB-435 18.1 µM | MOLT-4 26.2 µM | ACHN 49.3 µM | OVCAR-3 > 100 µM | CCRF-CEM 66.4 µM | SNB-19 > 100 µM | SF-295 50.7 µM | NCI-H522 31.5 µM | OVCAR-8 51.1 µM | NCI-H460 34 µM | RPMI-8226 > 10 µM | NCI/ADR-RES 29.3 µM | Malme-3M 44.7 µM | SW-620 53 µM | UACC-62 55.7 µM | HOP-62 > 100 µM | SNB-75 > 100 µM
